These are literature values, as cited in patent publication US20190105268A1, “Viscoelastic Gel of Liraglutide Adapted for Once-Weekly or Once Bi-Weekly Administration” (Sun Pharma Advanced Research Company Limited, priority 2016, published 2019).

liraglutide: under “DMSO”, the “solubility in DMSO” value is reported as “slightly soluble”. In addition, the solubility in ethanol (ethanol) is 1100 µg/mL. In addition, the solubility in methanol entry (methanol) is on record as “up to 68 mg/ml”. Moreover, the solubility in water entry (water) is reported as “insoluble to slightly soluble”.
